Test results: patent US20250144091A1, “SITAGLIPTIN PREPARATION AND METHOD OF STORAGE THEREOF” (SAWAI PHARMACEUTICAL CO., LTD., priority 2023, published 2025)

Legend:
[1] = Acceptable daily intake of NTTP (EMA/FDA); conditions: 37 ng corresponds to 0.088 ppm
Description: Recently, the European Medicines Agency (EMA) and the U.S. Food and Drug Administration (FDA) have announced that 7-Nitroso-3-(trifluoromethyl)-5,6,7,8-tetrahydro[1,2,4]triazolo-[4,3-a]pyrazine (NTTP), which is classified into nitrosamines, has been detected in a sitagliptin preparation. Nitrosamines are known to be potentially carcinogenic, and an acceptable intake of NTTP is set at 37 ng daily. NTTP is produced by the reaction of 3-(trifluoromethyl) 5,6,7,8-tetrahydro[1,2,4]triazolo-[4,3-a]pyrazine, which is produced by hydrolysis of sitagliptin, with nitrogen oxides such as nitrous acid. Nitrogen oxides are contained in small amounts in additives, as well as in the water and air used in the preparation process. Although the production pathway of NTTP is expected as described above, its reactivity is unknown. Therefore, a specific method for reducing the amount of NTTP in a preparation was completely unknown.
Generally, the criterion for reporting the amount of related substances in a preparation is 1,000 ppm, but it is a very difficult task to suppress the production of NTTP in a sitagliptin preparation because a daily acceptable intake of NTTP of 37 ng corresponds to 0.088 ppm.

[2] = set limit for nitrosamine in sitagliptin preparation; cited from earlier work

O=NN1CCn2c(nnc2C(F)(F)F)C1 [NTTP, 7-Nitroso-3-(trifluoromethyl)-5,6,7,8-tetrahydro[1,2,4]triazolo-[4,3-a]pyrazine]
daily acceptable intake of NTTP expressed as content in the preparation [1]: 0.088 ppm | acceptable intake of NTTP [2]: 37 ng daily
